Assay results reported in patent publication US20230106836A1, “METHOD OF USING BIOSURFACTANT-PRODUCING BACTERIA AGAINST FUNGAL AND BACTERIAL PATHOGENS” (THE ROYAL INSTITUTION FOR THE ADVANCEMENT OF …, priority 2020, published 2023).

Assays:
E. coli = assay: Diffusion plate assay of TLC fractions, organic acids and bleach; format: cell-based, Escherichia coli; settings: organic acids 1%, bleach 1.3%
Method: (§1) Bacterial cells were removed by centrifugation (5000×g at 4° C.) and the cell—free supernatant (CFS) was acidified to pH 2.0 with 2N HCL at 4° C. for 16 h resulting in a precipitate that was collected by centrifugation (5000×g for 10 min at 4° C.). The acid precipitate fraction (APF) was dissolved in water (100 mg/mL) and adjusted to pH 7.0 using 1N NaOH. The CFS sample and clean BHM culture medium were concentrated by freeze-drying for 48 h. All samples were stored at −80° C. until further use.
(§2) Separation of CFS and APF fractions was performed by thin layer chromatography (TLC). Acid-cleaned glass plates (20×20 cm) were coated with a thin layer of silica emulsion (160 grams of silica with 15% (w/v) calcium sulphate and with fluorescent indicator GF254 dissolved in 500 mL of double distilled water) purchased from Sigma-Aldrich and dried for 16-18 h at 22° C. Activation of silica plates was done by heating the TLC plates at 120° C. for 30 min prior to use. An amount of 100 mg of each of CFS and APF were dissolved in 400 μL of chloroform: methanol (2:1, v/v) and separated on activated TLC plates with chloroform: methanol: water (70:26:4) as the developing solvent system. Plates were observed under UV (λ=254 nm) and the retention factor (Rf) values were calculated as distance travelled by the samples over the distance travelled by solvent. Only APF separated fractions were used for bioactivity assays. Bands corresponding to the desired Rf values were scraped and collected for extraction. Bands of the same Rf value from different plates were pooled together and extracted twice with chloroform: methanol (v/v/; 2:1). The collected fractions were vacuum-concentrated for 4-6 h at −60° C. using a Speed Vac™ v78100 (Labconco Corp, Kansas City Mo., USA), re-dissolved in 50 μL of methanol and tested against target bacteria and fungi, as well as for biosurfactant activity. Methanol (50 μL) was used as a negative control.
(§3) The biosurfactant activity of the fractions was tested using the oil-spreading and the drop collapse methods, as described above. Fractions were also tested for their antimicrobial activities against a number of bacteria and fungi using the Burkholder diffusion plate method as noted above. Briefly, 10 μL of the dissolved fractions were spotted in the middle of the plates. Positive controls consisted of 10 μL of bleach and of each of the following organic acids: 1% (v/v) of acetic acid, formic acid, citric acid and lactic acid. […] Individual trials were performed in triplicate and the entire assay was repeated twice to confirm the findings.

X. campestris = assay: as above; format: cell-based; settings: strain B07.007, Xanthomonas campestris; organic acids 1%, bleach 1.3%
Method: as §1, §2, §3

Rhizoctonia solani = assay: Antimicrobial assay of TLC fractions against fungi; format: cell-based; settings: organic acids 1%, bleach 1.3%
Method: as §1, §2, §3

Botrytis cinerea = assay: Antimicrobial assay of TLC fractions against fungi; format: cell-based; settings: strain F014, Botrytis cinerea; organic acids 1%, bleach 1.3%
Method: as §1, §2, §3

[1] = tested on: Salmonella enterica serovars; assay: Diffusion plate assay of TLC fractions, organic acids and bleach; format: cell-based; settings: organic acids 1%, bleach 1.3%
Method: as §1
as §2, with “Only APF separated fractions were used for bioactivity assays.” left out
as §3

[2] = strain AG1-1A (ROS-2A), R. solani
[3] = strain AG3 (114), Rhizoctonia solani

SMILES | Microbial activity (clearing zone), fractions, organic acids and bleach (E. coli; strain E3-6, Escherichia coli) | Microbial activity (clearing zone), fractions, organic acids and bleach (E. coli; strain E10-6, E. coli) | Microbial activity (clearing zone), fractions, organic acids and bleach (E. coli; strain E14-6, E. coli) | Microbial activity (clearing zone), fractions, organic acids and bleach (E. coli; strain E15-6, E. coli) | Microbial activity (clearing zone), fractions, organic acids and bleach (X. campestris) | Microbial activity (clearing zone), fractions, organic acids and bleach (Rhizoctonia solani; [2]) | Microbial activity (clearing zone), fractions, organic acids and bleach (Rhizoctonia solani; [3]) | Microbial activity (clearing zone), fractions, organic acids and bleach (Botrytis cinerea) | Microbial activity (clearing zone), fractions, organic acids and bleach ([1]; strain MAE14, S. enterica Typhimurium) | Microbial activity (clearing zone), fractions, organic acids and bleach ([1]; strain MAE299, S. enterica Typhimurium) | Microbial activity (clearing zone), fractions, organic acids and bleach ([1]; strain MAE775, S. enterica Typhimurium) | Microbial activity (clearing zone), fractions, organic acids and bleach ([1]; strain PARC#5, S. enterica Agona) | Microbial activity (clearing zone), fractions, organic acids and bleach ([1]; strain SCS2, S. enterica I: Rough-O: e, h: e, n) | Microbial activity (clearing zone), fractions, organic acids and bleach ([1]; strain SL1, S. enterica Newport) | Microbial activity (clearing zone), fractions, organic acids and bleach ([1]; strain SL2, S. enterica Hartford) | Microbial activity (clearing zone), fractions, organic acids and bleach ([1]; strain UMR1, Salmonella enterica Typhimurium)
CC(=O)O [AA] | ++ ((++) clearing zone of 4 mm) | ++ ((++) clearing zone of 4 mm) | ++ ((++) clearing zone of 4 mm) | ++ ((++) clearing zone of 4 mm) | +++ (clearing zone of 5 mm (+++)) | ++ ((++) clearing zone of 4 mm) | ++ ((++) clearing zone of 4 mm) | ++ ((++) clearing zone of 4 mm) | ++ ((++) clearing zone of 4 mm) | ++ ((++) clearing zone of 4 mm) | +++ (clearing zone of 5 mm (+++)) | ++ ((++) clearing zone of 4 mm) | ++ ((++) clearing zone of 4 mm) | ++ ((++) clearing zone of 4 mm) | ++ ((++) clearing zone of 4 mm) | ++ ((++) clearing zone of 4 mm)
O=C(O)CC(O)(CC(=O)O)C(=O)O [CA] | + ((+) clearing zone of 3 mm) | + ((+) clearing zone of 3 mm) | + ((+) clearing zone of 3 mm) | + ((+) clearing zone of 3 mm) | ++ ((++) clearing zone of 4 mm) | + ((+) clearing zone of 3 mm) | + ((+) clearing zone of 3 mm) | + ((+) clearing zone of 3 mm) | – | – | – | – | – | – | – | –
O=CO [FA] | +++ (clearing zone of 5 mm (+++)) | +++ (clearing zone of 5 mm (+++)) | +++ (clearing zone of 5 mm (+++)) | +++ (clearing zone of 5 mm (+++)) | +++ (clearing zone of 5 mm (+++)) | +++ (clearing zone of 5 mm (+++)) | +++ (clearing zone of 5 mm (+++)) | +++ (clearing zone of 5 mm (+++)) | – | – | – | – | – | – | – | –
CC(O)C(=O)O (stereo not shown) [LA] | + ((+) clearing zone of 3 mm) | + ((+) clearing zone of 3 mm) | + ((+) clearing zone of 3 mm) | + ((+) clearing zone of 3 mm) | ++ ((++) clearing zone of 4 mm) | + ((+) clearing zone of 3 mm) | + ((+) clearing zone of 3 mm) | + ((+) clearing zone of 3 mm) | – | – | – | – | – | – | – | –
